# Experiments:
# Format in all cases: in vivo
# [1] = system: Surinam grass (Brachiaria decumbens); assay: Test B postemergence
# Summary of the method: (§1)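 Preemergence: seeds planted and treated with test chemicals in non-phytotoxic solvent with surfactant; postemergence on plants 2–18 cm (1- to 4-leaf stage). Kept in greenhouse 13–15 days, then visually rated against controls on a 0 (no effect) to 100 (complete control) scale.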
# [2] = system: barnyardgrass (Echinochloa crus-galli); assay: Test B postemergence
# Summary of the method: as §1
# [3] = system: blackgrass (Alopecurus myosuroides); assay: Test B postemergence
# Summary of the method: as §1
# [4] = system: cocklebur (Xanthium strumarium); assay: Test B postemergence
# Summary of the method: as §1
# corn (Zea mays) [5] = assay: Test B postemergence
# Summary of the method: as §1
# [6] = system: crabgrass (Digitaria sanguinalis); assay: Test B postemergence
# Summary of the method: as §1
# [7] = system: giant foxtail (Setaria faberii); assay: Test B postemergence
# Summary of the method: as §1
# [8] = system: lambsquarters (Chenopodium album); assay: Test B postemergence
# Summary of the method: as §1
# [9] = system: morning glory (Ipomoea hederacea); assay: Test B postemergence
# Summary of the method: as §1
# [10] = system: pigweed (Amaranthus retroflexus); assay: Test B postemergence
# Summary of the method: as §1
# [11] = system: velvetleaf (Abutilon theophrasti); assay: Test B postemergence
# Summary of the method: as §1
# [12] = system: wheat (Triticum aestivum); assay: Test B postemergence
# Summary of the method: as §1
# wild oat (Avena fatua) = assay: Test B postemergence
# Summary of the method: as §1
# [13] = system: Surinam grass (Brachiaria decumbens); assay: Test B preemergence
# Summary of the method: as §1
# [14] = system: barnyardgrass (Echinochloa crus-galli); assay: Test B preemergence
# Summary of the method: as §1
# [15] = system: cocklebur (Xanthium strumarium); assay: Test B preemergence
# Summary of the method: as §1
# corn (Zea mays) [16] = assay: Test B preemergence
# Summary of the method: as §1
# [17] = system: crabgrass (Digitaria sanguinalis); assay: Test B preemergence
# Summary of the method: as §1
# [18] = system: giant foxtail (Setaria faberii); assay: Test B preemergence
# Summary of the method: as §1
# [19] = system: lambsquarters (Chenopodium album); assay: Test B preemergence
# Summary of the method: as §1
# [20] = system: morning glory (Ipomoea hederacea); assay: Test B preemergence
# Summary of the method: as §1
# [21] = system: pigweed (Amaranthus retroflexus); assay: Test B preemergence
# Summary of the method: as §1
# rice (Oryza saliva) [22] = assay: Test B preemergence
# Summary of the method: as §1
# [23] = system: velvetleaf (Abutilon theophrasti); assay: Test B preemergence
# Summary of the method: as §1
# [24] = system: barnyardgrass (Echinochloa crus-galli); assay: Test C flooded paddy test; conditions: for Barnyardgrass plant response rating: Flooded Paddy, scale 0 to 100, 0 no effect, 100 complete control; for Plant response rating, Barnyardgrass: flooded paddy test, scale 0 to 100 (0 no effect, 100 complete control)
# Summary of the method: (§2)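 Visual ratings (0 = no effect, 100 = complete control) were made 12–14 days after treatment, relative to greenhouse controls. Plants in the flooded paddy test were rice, smallflower flatsedge, duck salad and barnyardgrass, treated at the 2-leaf stage.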
# [25] = system: duck salad (Heteranthera limosa); assay: Test C flooded paddy test; conditions: for Ducksalad plant response rating: Flooded Paddy, scale 0 to 100, 0 no effect, 100 complete control; for Plant response rating, Ducksalad: flooded paddy test, scale 0 to 100 (0 no effect, 100 complete control)
# Summary of the method: as §2
# rice (Oryza saliva) [26] = assay: Test C flooded paddy test; conditions: for Rice plant response rating: Flooded Paddy, scale 0 to 100, 0 no effect, 100 complete control; for Plant response rating, Rice: flooded paddy test, scale 0 to 100 (0 no effect, 100 complete control)
# Summary of the method: as §2
# [27] = system: smallflower flatsedge (Cyperus difformis); assay: Test C flooded paddy test; conditions: for Flatsedge plant response rating: Flooded Paddy, scale 0 to 100, 0 no effect, 100 complete control; for Plant response rating, Flatsedge: flooded paddy test, scale 0 to 100 (0 no effect, 100 complete control)
# Summary of the method: as §2
# [28] = Rate 125 g/ha, scale 0 to 100, 0 no effect, 100 complete control
# [29] = Rate 500 g/ha, scale 0 to 100, 0 is no effect, 100 is complete control, 13 to 15 days
# [30] = Preemergence, Rate 500 g/ha, scale 0 to 100, 0 no effect, 100 complete control
# [31] = preemergence, Rate 125 g/ha, scale of 0 to 100 where 0 is no effect and 100 is complete control, 13 to 15 days
smiles,measurement,setting,value
CCCCC(CCCC)c1ccn(C2SCN(c3cccc(OC(F)(F)F)c3)C2=O)n1 (centres unmarked) [Compound 115],"Plant response rating, Surinam grass",[1]; [28],20
same,"Plant response rating, Surinam grass",[1]; [29],100
same,"Plant response rating, Barnyardgrass",[2]; [28],0
same,"Plant response rating, Barnyardgrass",[2]; [29],0
same,"Plant response rating, Blackgrass",[3]; [28],0
same,"Plant response rating, Blackgrass",[3]; [29],0
same,"Plant response rating, Cocklebur",[4]; [28],20
same,"Plant response rating, Cocklebur",[4]; [29],70
same,"Plant response rating, Corn",corn (Zea mays) [5]; [28],20
same,"Plant response rating, Corn",corn (Zea mays) [5]; [29],20
same,"Plant response rating, Crabgrass",[6]; [28],20
same,"Plant response rating, Crabgrass",[6]; [29],30
same,"Plant response rating, Foxtail, Giant",[7]; [28],0
same,"Plant response rating, Foxtail, Giant",[7]; [29],0
same,"Plant response rating, Lambsquarters",[8]; [28],0
same,"Plant response rating, Lambsquarters",[8]; [29],0
same,"Plant response rating, Morningglory",[9]; [28],0
same,"Plant response rating, Morningglory",[9]; [29],0
same,"Plant response rating, Pigweed",[10]; [28],50
same,"Plant response rating, Pigweed",[10]; [29],60
same,"Plant response rating, Velvetleaf",[11]; [28],0
same,"Plant response rating, Velvetleaf",[11]; [29],0
same,"Plant response rating, Wheat",[12]; [28],40
same,"Plant response rating, Wheat",[12]; [29],50
same,"Plant response rating, Wild Oat",wild oat (Avena fatua); [28],30
same,"Plant response rating, Wild Oat",wild oat (Avena fatua); [29],60
same,"Plant response rating, Surinam grass",[13]; [30],0
same,"Plant response rating, Surinam grass",[13]; [31],0
same,"Plant response rating, Barnyardgrass",[14]; [30],0
same,"Plant response rating, Barnyardgrass",[14]; [31],0
same,"Plant response rating, Cocklebur",[15]; [30],0
same,"Plant response rating, Cocklebur",[15]; [31],0
same,"Plant response rating, Corn",corn (Zea mays) [16]; [30],0
same,"Plant response rating, Corn",corn (Zea mays) [16]; [31],0
same,"Plant response rating, Crabgrass",[17]; [30],0
same,"Plant response rating, Crabgrass",[17]; [31],0
same,"Plant response rating, Foxtail, Giant",[18]; [30],0
same,"Plant response rating, Foxtail, Giant",[18]; [31],0
same,"Plant response rating, Lambsquarters",[19]; [30],0
same,"Plant response rating, Lambsquarters",[19]; [31],0
same,"Plant response rating, Morningglory",[20]; [30],0
same,"Plant response rating, Morningglory",[20]; [31],0
same,"Plant response rating, Pigweed",[21]; [30],0
same,"Plant response rating, Pigweed",[21]; [31],0
same,"Plant response rating, Rice",rice (Oryza saliva) [22]; [30],0
same,"Plant response rating, Rice",rice (Oryza saliva) [22]; [31],0
same,"Plant response rating, Velvetleaf",[23]; [30],0
same,"Plant response rating, Velvetleaf",[23]; [31],0
same,Barnyardgrass plant response rating,[24]; Rate 250 g/ha,0
same,Barnyardgrass plant response rating,[24]; Rate 500 g/ha,0
same,"Plant response rating, Barnyardgrass",[24]; Rate 62 g/ha,0
same,"Plant response rating, Barnyardgrass",[24]; Rate 125 g/ha,0
same,Ducksalad plant response rating,[25]; Rate 250 g/ha,0
same,Ducksalad plant response rating,[25]; Rate 500 g/ha,0
same,"Plant response rating, Ducksalad",[25]; Rate 62 g/ha,0
same,"Plant response rating, Ducksalad",[25]; Rate 125 g/ha,0
same,Rice plant response rating,rice (Oryza saliva) [26]; Rate 250 g/ha,0
same,Rice plant response rating,rice (Oryza saliva) [26]; Rate 500 g/ha,0
same,"Plant response rating, Rice",rice (Oryza saliva) [26]; Rate 62 g/ha,0
same,"Plant response rating, Rice",rice (Oryza saliva) [26]; Rate 125 g/ha,0
same,Flatsedge plant response rating,[27]; Rate 250 g/ha,0
same,Flatsedge plant response rating,[27]; Rate 500 g/ha,0
same,"Plant response rating, Flatsedge",[27]; Rate 62 g/ha,0
same,"Plant response rating, Flatsedge",[27]; Rate 125 g/ha,0
CCCCC(CCCC)c1ccn(C2SCN(c3cccc(C(F)(F)F)c3)C2=O)n1 (centres unmarked) [Compound 116],"Plant response rating, Surinam grass",[1]; [28],0
same,"Plant response rating, Surinam grass",[1]; [29],20
same,"Plant response rating, Barnyardgrass",[2]; [28],0
same,"Plant response rating, Barnyardgrass",[2]; [29],20
same,"Plant response rating, Blackgrass",[3]; [28],0
same,"Plant response rating, Blackgrass",[3]; [29],60
same,"Plant response rating, Cocklebur",[4]; [28],30
same,"Plant response rating, Cocklebur",[4]; [29],50
same,"Plant response rating, Corn",corn (Zea mays) [5]; [28],20
same,"Plant response rating, Corn",corn (Zea mays) [5]; [29],20
same,"Plant response rating, Crabgrass",[6]; [28],20
same,"Plant response rating, Crabgrass",[6]; [29],40
same,"Plant response rating, Foxtail, Giant",[7]; [28],0
same,"Plant response rating, Foxtail, Giant",[7]; [29],0
same,"Plant response rating, Lambsquarters",[8]; [28],70
same,"Plant response rating, Lambsquarters",[8]; [29],90
same,"Plant response rating, Morningglory",[9]; [28],30
same,"Plant response rating, Morningglory",[9]; [29],30
same,"Plant response rating, Pigweed",[10]; [28],50
same,"Plant response rating, Pigweed",[10]; [29],70
same,"Plant response rating, Velvetleaf",[11]; [28],20
same,"Plant response rating, Velvetleaf",[11]; [29],30
same,"Plant response rating, Wheat",[12]; [28],20
same,"Plant response rating, Wheat",[12]; [29],20
same,"Plant response rating, Wild Oat",wild oat (Avena fatua); [28],30
same,"Plant response rating, Wild Oat",wild oat (Avena fatua); [29],50
same,"Plant response rating, Surinam grass",[13]; [30],0
same,"Plant response rating, Surinam grass",[13]; [31],0
same,"Plant response rating, Barnyardgrass",[14]; [30],0
same,"Plant response rating, Barnyardgrass",[14]; [31],0
same,"Plant response rating, Cocklebur",[15]; [30],0
same,"Plant response rating, Cocklebur",[15]; [31],0
same,"Plant response rating, Corn",corn (Zea mays) [16]; [30],0
same,"Plant response rating, Corn",corn (Zea mays) [16]; [31],0
same,"Plant response rating, Crabgrass",[17]; [30],0
same,"Plant response rating, Crabgrass",[17]; [31],0
same,"Plant response rating, Foxtail, Giant",[18]; [30],0
same,"Plant response rating, Foxtail, Giant",[18]; [31],0
same,"Plant response rating, Lambsquarters",[19]; [30],0
same,"Plant response rating, Lambsquarters",[19]; [31],0
same,"Plant response rating, Morningglory",[20]; [30],0
same,"Plant response rating, Morningglory",[20]; [31],0
same,"Plant response rating, Pigweed",[21]; [30],0
same,"Plant response rating, Pigweed",[21]; [31],0
same,"Plant response rating, Rice",rice (Oryza saliva) [22]; [30],0
same,"Plant response rating, Rice",rice (Oryza saliva) [22]; [31],0
same,"Plant response rating, Velvetleaf",[23]; [30],0
same,"Plant response rating, Velvetleaf",[23]; [31],0
same,Barnyardgrass plant response rating,[24]; Rate 250 g/ha,0
same,Barnyardgrass plant response rating,[24]; Rate 500 g/ha,0
same,"Plant response rating, Barnyardgrass",[24]; Rate 62 g/ha,0
same,"Plant response rating, Barnyardgrass",[24]; Rate 125 g/ha,0
same,Ducksalad plant response rating,[25]; Rate 250 g/ha,0
same,Ducksalad plant response rating,[25]; Rate 500 g/ha,0
same,"Plant response rating, Ducksalad",[25]; Rate 62 g/ha,0
same,"Plant response rating, Ducksalad",[25]; Rate 125 g/ha,0
same,Rice plant response rating,rice (Oryza saliva) [26]; Rate 250 g/ha,0
same,Rice plant response rating,rice (Oryza saliva) [26]; Rate 500 g/ha,0
same,"Plant response rating, Rice",rice (Oryza saliva) [26]; Rate 62 g/ha,0
same,"Plant response rating, Rice",rice (Oryza saliva) [26]; Rate 125 g/ha,0
same,Flatsedge plant response rating,[27]; Rate 250 g/ha,0
same,Flatsedge plant response rating,[27]; Rate 500 g/ha,0
same,"Plant response rating, Flatsedge",[27]; Rate 62 g/ha,0
same,"Plant response rating, Flatsedge",[27]; Rate 125 g/ha,0
